The record followed here is ChEMBL document CHEMBL3779863, “Ionic liquid-promoted one-pot synthesis of thiazoleimidazo[2,1-b][1,3,4]thiadiazole hybrids and their antitubercular activity” (Medchemcomm, 2016).

A word on the MIC: it is the smallest concentration in the dilution series that meets the test's criterion for growth inhibition. A higher MIC goes with weaker potency.

The subject of the assay is Mycobacterium tuberculosis. As to the kind of experiment: Antimycobacterial activity against extensively drug resistant Mycobacterium tuberculosis H37Rv ATCC 27294 after 28 days by agar dilution method. The format is functional. The settings on record: H37Rv ATCC 27294, 672 h.

Converted amounts (≈) assume the structure as drawn.

In turn, `Cc1nn2c(/C=N/Nc3nc(-c4ccc(F)cc4)cs3)c(-c3ccc(Cl)cc3)nc2s1` displayed an MIC of 53.9 µM (≈ 25.3 µg/mL).

Take `Cc1ccc(-c2nc3sc(C)nn3c2/C=N/Nc2nc(-c3ccc(Cl)cc3)cs2)cc1`: the MIC came to 53.9 µM (≈ 25 µg/mL). The compound `Cc1ccc(-c2csc(N/N=C/c3c(-c4ccc(C)cc4)nc4sc(C)nn34)n2)cc1` yielded an MIC of 56.3 µM (≈ 25 µg/mL). As to `COc1ccc(-c2csc(N/N=C/c3c(-c4ccc(OC)cc4)nc4sc(C(F)(F)F)nn34)n2)cc1`, the MIC amounted to 94.3 µM (≈ 50 µg/mL). Take `COc1ccc(-c2csc(N/N=C/c3c(-c4ccc(C)cc4)nc4sc(C)nn34)n2)cc1`: the MIC was found to be 109 µM (≈ 50 µg/mL). `Fc1ccc(-c2csc(N/N=C/c3c(-c4ccc(Cl)cc4)nc4sc(C(F)(F)F)nn34)n2)cc1` registered an MIC of 12 µM (≈ 6.26 µg/mL). For `Cc1ccc(-c2csc(N/N=C/c3c(-c4ccc(Cl)cc4)nc4sc(C)nn34)n2)cc1` the value was 108 µM (≈ 50.1 µg/mL); for `COc1ccc(-c2nc3sc(C(F)(F)F)nn3c2/C=N/Nc2nc(-c3ccc(C)cc3)cs2)cc1`, 24.1 µM (≈ 12.4 µg/mL); for `COc1ccc(-c2nc3sc(C(F)(F)F)nn3c2/C=N/Nc2nc(-c3ccc(F)cc3)cs2)cc1`, 24.1 µM (≈ 12.5 µg/mL). `Cc1ccc(-c2nc3sc(C)nn3c2/C=N/Nc2nc(-c3ccc(F)cc3)cs2)cc1` showed an MIC of 13.9 µM (≈ 6.25 µg/mL).

Compound `COc1ccc(-c2nc3sc(C)nn3c2/C=N/Nc2nc(-c3ccc([N+](=O)[O-])cc3)cs2)cc1` had an MIC of 12.7 µM (≈ 6.25 µg/mL). In the case of `COc1ccc(-c2nc3sc(C)nn3c2/C=N/Nc2nc(-c3ccc(C)cc3)cs2)cc1` it was 109 µM (≈ 50 µg/mL). The compound `Cc1ccc(-c2nc3sc(C)nn3c2/C=N/Nc2nc(-c3ccc([N+](=O)[O-])cc3)cs2)cc1` registered an MIC of 26.3 µM (≈ 12.5 µg/mL). In turn, `O=[N+]([O-])c1ccc(-c2csc(N/N=C/c3c(-c4ccc(Cl)cc4)nc4sc(C(F)(F)F)nn34)n2)cc1` came in with an MIC of 91.1 µM (≈ 50.1 µg/mL).

`COc1ccc(-c2csc(N/N=C/c3c(-c4ccc(OC)cc4)nc4sc(C)nn34)n2)cc1` had an MIC of 105 µM (≈ 50 µg/mL). `COc1ccc(-c2nc3sc(C)nn3c2/C=N/Nc2nc(-c3ccc(F)cc3)cs2)cc1` returned an MIC of 108 µM (≈ 50 µg/mL). In the case of `COc1ccc(-c2csc(N/N=C/c3c(-c4ccc(Cl)cc4)nc4sc(C)nn34)n2)cc1` it was 52.1 µM (≈ 25 µg/mL); in that of `FC(F)(F)c1nn2c(/C=N/Nc3nc(-c4ccc(Cl)cc4)cs3)c(-c3ccc(Cl)cc3)nc2s1`, 92.9 µM (≈ 50.1 µg/mL); in that of `COc1ccc(-c2nc3sc(C(F)(F)F)nn3c2/C=N/Nc2nc(-c3ccc(Cl)cc3)cs2)cc1`, 93.6 µM (≈ 50.1 µg/mL).

In the case of `Cc1nn2c(/C=N/Nc3nc(-c4ccc(Cl)cc4)cs3)c(-c3ccc(Cl)cc3)nc2s1`, the MIC was 103 µM (≈ 50 µg/mL). `COc1ccc(-c2csc(N/N=C/c3c(-c4ccc(Cl)cc4)nc4sc(C(F)(F)F)nn34)n2)cc1` showed an MIC of 11.7 µM (≈ 6.26 µg/mL).

Consider `Cc1ccc(-c2csc(N/N=C/c3c(-c4ccc(Cl)cc4)nc4sc(C(F)(F)F)nn34)n2)cc1`, for which the MIC worked out at 6.03 µM (≈ 3.13 µg/mL). For `COc1ccc(-c2nc3sc(C)nn3c2/C=N/Nc2nc(-c3ccc(Cl)cc3)cs2)cc1` the value was 26 µM (≈ 12.5 µg/mL). Compound `O=C(O)c1cn(C2CC2)c2cc(N3CCNCC3)c(F)cc2c1=O` [CIPROFLOXACIN] came in with an MIC of 9.44 µM (≈ 3.13 µg/mL). `CC[C@@H](CO)NCCN[C@@H](CC)CO` [ETHAMBUTOL] yielded an MIC of 15.3 µM (≈ 3.13 µg/mL). In turn, `NNC(=O)c1ccncc1` [ISONIAZID] yielded an MIC of 0.729 µM (≈ 0.1 µg/mL).
